“Also recorded” adds a separate entry of the source. No end group written: not given here.
Legend:
[1] = system: Ad2 major core protein precursor, pVII; assay: Assay of adenovirus proteinase activity in crude extracts: cleavage of [35S]-methionine-labeled pVII (SDS-PAGE, autoradiography); format: biochemical, adenovirus type 2; conditions: for Proteinase activity (cleavage of pVII): log phase cells
Procedure: The expression products of the above-described Ad2 and Ad12 proteinase plasmids were tested for their ability to cleave the Ad2 major core protein precursor, pVII, in crude extracts from adenovirus-infected cells. The extracts were obtained from human cells infected with the temperature-sensitive mutant Ad2 strain, H2ts1, which has a defective proteinase. As described below, adenovirus proteinase activity requires the presence of two cofactors. […] The recombinant proteinases were also characterized by peptide sequence analysis of their amino-termini.
Bacterial extracts were incubated with the radiolabeled substrate (pVII). Samples were removed at different times and analyzed by SDS-PAGE and autoradiography. […] Appearance of the processed VII band and concurrent decrease of the precursor pVII band indicates proteinase activity. Radiolabeled proteins of Ad2 virions were run on the gel to indicate the positions of pVII, VII, and other virion components (lane a). Extracts from Ad2 -infected HeLa cells were assayed as a positive control for proteinase activity (lane b).
Adenovirus proteinase activity was monitored by the cleavage of [^35 S]-methionine-labeled major core precursor (pVII) essentially as described (Bhatti and Weber, Biochem. Biophys. Res. Comm. 81: 973-797, (1978)). The proteinase substrate was prepared from Ad2Ad2tsl-infected HeLa cells grown at 39° C. and labeled with [^35 S]-methionine (200 μCi/plate) from approximately 28 to 30 hours after infection. Labeled cultures were harvested, washed twice in Phosphate Buffered Saline (PBS), resuspended in 1.0 ml of 10 mM sodium phosphate buffer, pH 7.4, per plate, and sonicated for 40 seconds using a water-cooled sonicator horn (Branson Sonic Power Co., Danbury, Conn.). The extract was then centrifuged at 12,000×g for 10 minutes, and the pellet was resuspended in 10 mM phosphate buffer.
Extracts of Ad-infected cells, harvested 40 hours after infection at 37° C. were used as a source of viral proteinase. Harvested cultures were washed twice with PBS, resuspended in 10 mM phosphate buffer, frozen and thawed once, and centrifuged at 12,000×g for 10 minutes. Pellets were resuspended in 1.0 ml phosphate buffer, pH 7.4, per 10^6 infected cells and sonicated 4×10 seconds; samples were stored at -70° C. Bacterial extracts were prepared by lysozyme-EDTAtreatment of cultures harvested 2 hours after IPTG induction.
Assays were performed by mixing equal volumes of [^35 S]-labeled substrate and test extract and incubating at 37° C. At different times, 25 μl samples were removed, mixed with 25 μl of SDS Sample Buffer, heated to 90° C., and analyzed by SDS-polyacrylamide gel electrophoresis and autoradiography as described (Anderson et al., J. Virol. 12: 241-252 (1973).
Recombinant proteinase polypeptides were assayed for proteinase activity by incubating whole-cell extracts of BL21 (DE3), pT7AD23K5/BL21(DE3), and pT7AD23k6/BL21(DE3), prepared as described above, with extracts of [^35 S]-methionine-labeled Ad2 virion precursor polypeptides. Incubation of the labeled extract at 37° C. for up to 20 hours, alone or with an extract prepared from uninfected HeLa cells, produced little change in the pattern of labeled polypeptides.

HEP1DBP = assay: Cleavage of artificial protein substrate HEP1DBP (SDS-polyacrylamide gel electrophoresis); format: biochemical
Text: Recombinant protein substrates that resemble natural virion precursors, such as pVI, can be produced in E. coli by genetic engineering methods similar to those used for expression of recombinant adenovirus proteinase. The recombinant substrate may have an artificial leader sequence that can be removed by proteinase-mediated cleavage. The leader can be designed to aid in purification of the substrate; thus the recombinant substrate can be produced and purified much more efficiently than natural adenovirus substrates. Recombinant protein substrates also serve as prototypes of potential commercial products, showing that the adenovirus proteinase will remove an artificial leader sequence from a recombinant protein that is not related to any adenovirus protein. The first artificial protein substrate was called HEP1DBP. It consists of a 17 amino acid leader (Met-Ala-Ser-Met-Thr-Gly-His-His-His-His-His-His-Gly-Met-Ser-Gly-Gly-) (SEQ ID NO: 37) attached to the initiating methionine of the 232 amino acid DNA binding protein (DBP), of bacteriophage T7. The T7 DBP is the product of gene 2.5. The recombinant proteinase substrate is produced by induction of a pET expression plasmid called pT7HEP1DBP (also called pT7HIS2) (FIG. 7A and Example 11); the predicted sequence of the expressed substrate is given in Table 1. The leader sequence contains six consecutive histidine residues to permit purification by metal affinity chromatography in a manner analogous to purification of the adenovirus proteinase. Immediately preceding the methionine corresponding to the initiation site of the T7 DBP is the tetra-amino acid element -Met-Ser-Gly-Gly- (SEQ ID NO: 38). This segment corresponds to the proteinase recognition sequence in the adenovirus virion precursor polypeptide pVI. The size of the leader sequence was chosen so that the substrate precursor HEP1DBP, and the predicted major product after cleavage, the T7 DBP, could easily be distinguished by SDS-polyacrylamide gel electrophoresis.
When purified HEP1DBP was incubated with disrupted wild-type adenovirus 2 virions, it was cleaved, as determined from the change in its mobility during SDS-polyacrylamide gel electrophoresis. No cleavage was observed when incubation was with disrupted H2ts1 virions alone.
Plasmid pT7HEP1DBP (5346 bp) is a pET-3 derivative that expresses the […] T7 gene 2.5 protein (a single-stranded DNA binding protein) attached to a 17-amino acid leader sequence (FIG. 19). The 249-amino acid HEP1DBP polypeptide serves as an artificial substrate for the adenovirus EP; the leader peptide, MASMTGHHHHHHGMSGG- (SEQ ID NO: 37), ends with the Ad2 proteinase recognition sequence -MSGG- (SEQ ID NO: 38) [Anderson, C. […]

[2] = target: T1, Ad2 proteinase (rEP protein) (Human adenovirus C serotype 2, UniProt P03252); format: biochemical, human adenovirus type 2; conditions: for Rate (pmol substrate min^-1) / Stimulation (fold): rate in presence of effector divided by rate in its absence: 8.3 nM rEP protein, 98 nM pVIc peptide; for Rate (pmol substrate min^-1): 1 μM (Leu-Arg-Gly-Gly-NH)2-rhodamine, effector at concentration giving maximal stimulation; for Stimulation (fold): rate in presence of effector divided by rate in its absence: 1 μM substrate; for Effector concentration that gave maximal stimulation of proteinase activity: moles of molecules per liter, 8.3 nM rEP, 98 nM pVIc
T1 construct: Plasmid pT7AD23k6 contains the 204 codons of the Ad2 proteinase reading frame plus a translational termination codon; made in house; host or cells: E. coli BL21(DE3)
T1 sequence (P03252 whole entry): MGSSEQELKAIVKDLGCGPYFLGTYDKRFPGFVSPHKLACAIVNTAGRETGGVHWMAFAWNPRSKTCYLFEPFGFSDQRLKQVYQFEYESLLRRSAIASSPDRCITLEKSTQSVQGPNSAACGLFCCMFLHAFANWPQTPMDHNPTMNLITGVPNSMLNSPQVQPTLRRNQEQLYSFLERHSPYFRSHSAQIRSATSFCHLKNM
Text: The nature of the proteinase cofactor(s) was pursued with the aid of the second assay, which utilizes the substrate (Leu-Arg-Gly-Gly-NH)2 -rhodamine. The design of this substrate was based on two facts. (1) It was known that the proteinase present in disrupted Ad2 virions would cleave small peptides with sequence similar to that found at natural cleavage sites in adenovirus virion precursors (Webster et al., 1989). (2) Cleavage of either tetra-peptide sequence from the substituted rhodamine substrate produces a very large increase, up to a 3500-fold, in fluorescence. Under conditions where only a small fraction of the rhodamine substrate is cleaved, the increase in fluorescence is proportional to the amount of proteinase present and to the time of incubation. Thus, the fluorescence assay provides a quantitative method for assessing proteinase activity that is more sensitive convenient and rapid than the gel electrophoresis assay.
After determining the identity of the two cofactors, reconstitution of adenovirus proteinase activity in vitro with purified components was accomplished. […] In (a), Assays in 1 ml contained 1.2 nM rEP protein, 11.9 pM Ad2 DNA and the indicated concentrations of pVI-c peptide. The rate of substrate hydrolysis is the rate in the reaction minus the rate with the rEP protein and Ad2 DNA alone which was 0.068 pmol min^-1. In (b), Assays in 1 ml contained 1.2 nM rEP protein, 36 nM pVI-c peptide and the indicated concentrations of Ad2 DNA. The rate of substrate hydrolysis is the rate in the reaction minus the rate with the rEP protein and pVI-c alone which was 2.76 pmol min^-1. The concentration of (Leu-Arg-Gly-Gly-NH)2 -rhodamine was 5 μM, and its rate of hydrolysis to Leu-Arg-Gly-Gly-NH-rhodamine was determined by measuring the increase in fluorescence every 3 minutes for 15 minutes. The pVI-c peptide was assembled in a peptide synthesizer.
Assays were performed in 400 μl of Assay Buffer (50 mM Tris-HCl, pH 7.4, 25 mM NaCl, 10 mM octylglucoside, and 1 mM dithiothreitol). The concentration of the fluorogenic substrate, (Leu-Arg-Gly-Gly-NH)2 -rhodamine was 5 μM. When present, the number of disrupted virus particles was 10^10 and the amount of recombinant proteinase was 0.12 mAU280 nm. […] After 30 minutes at 37° C., a 360 μl aliquot of the reaction was added to 340 μl of Assay Buffer minus octylglucoside, and the increase in fluorescence was measured. The excitation wavelength was 492 nm and the emission wavelength was 523 nm, both with a bandwidth of 5 nm. The change in fluorescence, ΔF, is the magnitude of the fluorescence from the sample minus the magnitude of the fluorescence from an identical solution without enzyme.
DNase-treated disrupted virus was obtained by incubating 2×10^10 disrupted virions in 20 μl containing 0.1M NaAc, pH 5.0, 5 mM MgCl2, and 55 μg/ml DNase I for 4 minutes at 25° C. Then, EDTA to 23 mM and dithiothreitol to 2.3 mM were added, and the reactions were heated at 56° C. for 1 minute to inactivate the DNase.
For the assays shown in FIG. 8, the DNase reactions were diluted by the addition of 380 μl Assay Buffer containing the substrate, the proteinase and either 2×10^10 molecules of Ad2 DNA (+) or no DNA (-). After 30 minutes at 37° C., 360 μl of the reactions were added to 340 μl Assay Buffer minus octylglucoside and the increase in fluorescence was measured. The assays in (B) and (C) were identical to those in (A) except that in (B) H2ts1 virus was added after the DNase was inactivated (i-DNase) and in (C) no Dnase was present. In (D) recombinant proteinase plus 10^10 molecules of Ad2 DNA were preincubated for 10 minutes at 37° C. before adding substrate.
.dagger. All assays contained 8.3 nM rEP protein, 98 nM pVIc peptide, and
1 μM (Leu--Arg--Gly--Gly--NH)2rhodamine. The rate of substrate

Compound | Activity/Conditions ([1]; Induced, log phase) | Proteinase activity (cleavage of pVII) ([1]; extracts of IPTG-induced) | Rate (pmol substrate min^-1) [2] [pmol substrate min^-1] | Stimulation (fold): rate in presence of effector divided by rate in its absence [2] [fold] | Effector concentration that gave maximal stimulation of proteinase activity [2] [nM] | other results
23K8: recombinant wild-type Ad2 proteinase from pT7AD23K8 (gene with AflII site) | Active | active | – | – | – | Cleavage of HEP1DBP (HEP1DBP; incubated together with disrupted H2ts1 virions): cleavage was obtained; Cleavage of HEP1DBP (HEP1DBP; incubated with HEP1DBP alone, no added cofactors): no cleavage
23K10: recombinant Ad2 proteinase from pT7AD23K10, same reading frame as pT7AD23k6 | Active | active | – | – | – | –
23K11: Ad2 proteinase variant, E5 QELKAIVK13 deleted, 194 amino acids | – | not active | – | – | – | Proteinase activity (cleavage of pVII) ([1]; either uninduced, stationary or induced): No processing activity was detected; also recorded: No proteinase activity; Activity/Conditions ([1]; no growth conditions printed): Inactive
23K13: Ad2 proteinase variant with GHHHHHHNM at carboxy-terminus | Active | as active as 23k6 | – | – | – | –
N[C@@H](CC(=O)O)C(=O)O [Aspartic acid] | – | – | 2.1 | < 1.0 | 1380 | –
N[C@@H](CCC(=O)O)C(=O)O [Glutamic acid] | – | – | 2.3 | < 1.0 | 780 | –
CGYGPKKKRKVGG [peptide similar in character to pVI-c] | – | – | – | – | – | Substitution for the pVI-c peptide as cofactor [2]: did not substitute
Heparin | – | – | 12.9 | 4.7 | 33 | Substitution for Ad2 DNA as cofactor of proteinase activity ([2]; in vitro): substituted for Ad2 DNA

Source: US5935840A, “Activated recombinant adenovirus proteinases” (priority 1995, dated 1999)
